Structures can show the parent of a compound that is named as a salt. Where two headings read alike, the source gives them in different places.
Key:
[1] = tested on: Human primary myoblasts; test: Hypertrophy assay (MyoScreen human myotube model): primary screening, retest, dose response; format: cell-based
Description: Healthy donor primary skeletal cells (Donor 1 and Donor 3) were Clonetics™ Human Skeletal Muscle Myoblasts (HSMM).
(§1) Hypertrophy and Atrophy Rescue assays were performed using an in vitro fully automated human myotube model called MyoScreen™ (Cytoo, France). This model relies on a tight control of the microenvironment that guides the differentiation of human primary myoblasts. Myotubes formed on MyoScreen™ micropatterns present a high level of maturation together with a highly standardized morphology.
(§2) Human primary myoblasts from donors were seeded in MyoScreen™ micropatterned 96-well plates (Cytoo, France), let them adhere for 24 h in growth medium, then run the differentiation in a low horse serum medium for at least 5 days.
(§3) At Day 0, MyoScreen™ plates (Cytoo, France) containing micropatterns were pre-filled with 200 μl/well of growth medium and stored in the incubator at 37° C. Human primary myoblasts were detached from the flasks, count, and seeded into the plates with 15 000 cells per well in 100 μl of growth medium.
(§4) At Day 1, the growth medium was changed for a differentiation medium, 300 μ/well (DMEM with 0.1% horse serum) in which myoblasts started differentiating and forming myotubes.
(§5) At Day 2, the differentiation medium was changed. Then candidate compounds were diluted with differentiation medium and transferred into the plate. The final concentration of DMSO should be not higher than 0.1%. At least 6 wells were treated with the vehicle as a basal control, and 6 wells were treated with IGF-1 at 100 ng/ml as positive hypertrophy control.
(§6) At Day 6, cells were fixed with formalin 5% for 30 min at room temperature, then permeabilized with Triton X-100 at 0.1% in PBS for 15 min, and blocked with PBS+BSA 1% for 20 minutes. Myotubes were incubated with first antibody against Troponin T in blocking buffer for 1 h30, washed three times with PBS, incubated with secondary antibody and Hoescht ( 1/10000) for 1 h30, and washed three times with PBS.
Images were acquired at 10× magnification with an Operetta High Content Imaging System. Image processing and analysis were performed with dedicated algorithms developed on the Acapella High Content Imaging Software (Perkin Elmer) by CYTOO. Eleven fields per well were acquired.
First, segmentation of myotubes and nuclei were done using respectively the Troponin T staining intensity and the Hoechst staining. […] The threshold of segmentation was set-up in order to avoid detecting the background noise and eliminate aberrant small myotube structures.
Then, an image clean-up step was performed on the Troponin T images in order to remove myotubes that touch the border of the image. The final valid myotubes were used to extract myotube morphology parameters including the myotube width and area, and the number of nuclei per myotube.
Nuclei Count, Fusion Index, Mean myotube Area and Number of nuclei per myotube have been validated as relevant and sensitive readouts of myotube differentiation as well as atrophic and hypertrophic induction.
A primary screening was run to identify hypertrophy compounds that increase the myotube differentiation and size. Candidate compounds were tested at 10 μM in monoplicate on Donor 3 cells.
A retest was run, by cherry picking (same compound batch as primary screening): each hit was tested in the same conditions as in the Primary Screening (Donor 3, 10 μM) in six well replicates.
Dose response assays were performed on two healthy donors (Donors 3 and 1): 8 doses of candidate compounds between 33 μM and 0.015 μM, 2 well replicates per dose.

[2] = tested on: Human primary myoblasts; test: as above; format: cell-based; remark: listed apart in the source
[3] = tested on: Myotubes from the healthy donor 3; test: Atrophy Rescue assay (MyoScreen) with atrophy inducers; format: cell-based, Human; parameters: key: +++: total rescue; ++: partial rescue; +: low rescue; details: tranylcypromine 1 μM; for atrophy rescue, IL-1: inducer IL-1β 25 ng/mL; for atrophy rescue, TGF-β: inducer TGF-β 0.5 ng/mL; for atrophy rescue, TNF-alpha: inducer TNF-α 2 ng/mL; for atrophy rescue, dexamethasone: inducer dexamethasone 100 μM; for atrophy rescue, Myostatin: inducer myostatin 150 ng/mL
Description: as §1, §2, §3, §4, §5
For Atrophy Rescue assay, one hour after candidate compound addition, atrophy inducers were added at the following final concentration: 150 ng/mL of myostatin, 25 ng/mL of IL-1β, 2 ng/mL of TNF-α, 0.5 ng/mL of TGF-β and 100 μM of dexamethasone.
as §6
Atrophy Rescue assays were performed in triplicate in the presence of atrophy inducers, i.e. TNF-α, IL-1β, Myostatin, TGF-β and dexamethasone, and at 1 μM tranylcypromine.
Atrophy rescue assays was performed for tranylcypromine. Myotubes from the healthy donor 3 were atrophied using different inducers: TNF-α, IL-1β, Myostatin, TGF-β and dexamethasone. The ability of tranylcypromine to block the atrophy induced by these different atrophy inducers was determined.

[4] = tested on: MyoScreen myotubes; test: Acetylcholine Receptor (AchR) Clustering Assay (MyoScreen); format: cell-based, Human; details: after 7 days of treatment
Description: The MyoScreen™ protocol was performed as described in the Hypertrophy and Atrophy rescue assay in example 1 but was stopped at Day 9 instead of Day 6. At the end of the assay, AchR were immunostained using a specific antibody in addition to Troponin T and nuclei. Images were acquired at ×20 with an Operetta High Content Imaging System from Perkin Elmer. Image processing and analyses were performed with a dedicated algorithm developed on the Acapella High Content Imaging Software (Perkin Elmer). Specific readouts were calculated in each well: nuclei count and myotube fusion index, number of AchR, AchR mean area, AchR total area normalized by the myotube total area.
Remarkably, when labeled with a specific anti-AChR antibody, MyoScreen myotubes at 6 days post-differentiation display AChR clusters punctuated along the sarcolemma membrane in the middle of the myotube fiber and in distinct regions at the ends of myotubes. To develop an automated AChR cluster assay, an AChR detection routine was developed that was sensitive and robust enough to analyze aggregate number and size clusters in images using the Operetta/Acapella system (see Materials and Methods).

[5] = Donor 1, first dose response assay (0.015-33 μM)
[6] = Donor 3, first dose response assay (0.015-33 μM)
[7] = Homo sapiens, Myoblast, Donor 3, second dose response assay
[8] = Donor 3, second dose response assay, lower concentrations
[9] = Donor 3, Example 2 dose response
[10] = Donor 5, Example 2 dose response
[11] = Donor 7, compounds at 1 μM (IGF-1 positive control)

| Molecule | % Activity [1, 5] [%] | % Activity [1, 6] [%] | EC50 [1, 7] [nM] | % Activity [2, 8] [%] | atrophy rescue, IL-1 [3] | atrophy rescue, TGF-β [3] | atrophy rescue, TNF-alpha [3] | atrophy rescue, dexamethasone [3] | atrophy rescue, Myostatin [3] | % Activity [1, 9] [%] | % Activity [2, 10] [%] | % Activity [2, 11] | also measured |
| --- | --- | --- | --- | --- | --- | --- | --- | --- | --- | --- | --- | --- | --- |
| N[C@H]1C[C@@H]1c1ccccc1 (relative stereo) [Tranylcypromine, trans-2-phenylcyclopropan-1-amine] | 138 | 127 | 50 | 135 | +++ | + | + | ++ | +++ | – | – | – | EC50 ([2]; Homo sapiens, Myoblast, Donor 1, first dose response assay): < 300 nM; activity at 10 µM ([2]; Homo sapiens, Myoblast, Donor 3, compounds 10 μM, monoplicate (IGF-1 control 100 ng/ml), Myotube fusion index (compound)*100/basal control, read-out: Primary screening (% Activity)): 176%; activity at 10 µM ([2]; Homo sapiens, Myoblast, Donor 3, compounds 10 μM, six well replicates (IGF-1 control 100 ng/ml), Myotube fusion index (compound)*100/basal control, read-out: Retest (% Activity)): 136%; EC50 ([2]; Homo sapiens, Myoblast, Donor 3, first dose response assay): < 30 nM; increase in the fusion index or/and myotube area readouts ([2]; primary screening and retest, Donor 3, 10 μM): > 30% |
| Cl.Cl.NNCCc1ccc(NC(=O)CCCc2ccccc2)cc1 [Bizine] | – | – | – | – | – | – | – | – | – | 120 | 119 | 116% at 1 μM | EC50 [1, 9]: < 350 nM; EC50 [2, 10]: 87 nM |
| c1ccc(C2C[C@H]2NC2CCNCC2)cc1 (stereo partly drawn) [GSK LSD1] | – | – | 0.1 | 145 | – | – | – | – | – | – | 146 | – | increase of AchR cluster total area (normalized by total myotube area) ([4]; Donor 3): 50%; increase of AchR cluster total area (normalized by total myotube area) ([4]; Donor 5): 260%; EC50 ([2]; Homo sapiens, Myoblast, Donor 5, Example 2 dose response): 0.012 nM; activity at 1 µM ([2]; Homo sapiens, Myoblast, Donor 7, compounds at 1 μM (IGF-1 positive control)): 120%; activity at 1 µM ([2]; Homo sapiens, Myoblast, Donor C1, compound at 1 μM (IGF-1 positive control)): 154%; activity at 1 µM ([2]; Homo sapiens, Myoblast, Donor C13, compound at 1 μM (IGF-1 positive control)): 123% |
| CN1CCN(C(=O)CN[C@H]2C[C@@H]2c2ccc(OCc3ccccc3)cc2)CC1 [RN 1 dihydrochloride] | – | – | 0.1 | 135 | – | – | – | – | – | – | – | – | – |
| IGF-1: insulin-like growth factor I, positive hypertrophy control at 100 ng/ml | 150 | 150 | – | 150 | +++ | ++ | +++ | +++ | +++ | 190 | 145 | 119% | Primary screening (% Activity) ([1]; Donor 3, compounds 10 μM, monoplicate (IGF-1 control 100 ng/ml), Myotube fusion index (compound)*100/basal control): 210%; Retest (% Activity) ([2]; Donor 3, compounds 10 μM, six well replicates (IGF-1 control 100 ng/ml), Myotube fusion index (compound)*100/basal control): 190%; % Activity ([2]; Donor C1, compound at 1 μM (IGF-1 positive control)): 124%; % Activity ([2]; Donor C13, compound at 1 μM (IGF-1 positive control)): 141% |
